Measurements published in patent US5217953A, “Vasoactive intestinal peptide antagonist” (The United States of America as represented by the …, priority 1990, dated 1993).
Read-outs that look alike come from different tables or passages of the source. No end group written: not given here.

What was measured:
[1] = tested on: castrated rats injected with testosterone; test: Sexual behavior of castrated rats supplemented with testosterone; format: in vivo, rat
Procedure: Rats were castrated and injected with testosterone (4 μg/100 g BW) daily for 14 consecutive days. VIP (5 μg/animal) and the antagonists (30 μg/animal) were injected ip in a volume of 0.25 ml. Initial experiments were conducted using iv injections; however, as no significant differences were observed between iv and ip administration, ip injections were chosen in this model. When comparisons were made, the same group of rats was injected with one peptide and, after a period of at least 24 hr, with another peptide.

[2] = tested on: NCI-H838; test: Soft agar colony formation, NCI-H838; format: cell-based; conditions: 1 μM, 2 weeks
Procedure: (§1) In order to test whether the VIP-neurotensin hybrid antagonist inhibited the growth of NSCLC, single viable cells (10^4) were plated in soft agar in the absence and presence of 1 μM VIP-neurotensin hybrid antagonist. After 2 weeks, colonies were stained with a vital dye and live colonies (>[…]) counted. The colony fraction (colonies in the presence of the VIP-neurotensin hybrid antagonist relative to the number of basal colonies) was calculated. Cell lines NCI-H522, NCI-H838, and NCI-H1246 had colony fractions of 0.45±0.16, 0.76±0.04, and 1.47±0.30, respectively. The VIP-neurotensin hybrid antagonist inhibited colony formation of cell lines NCI-H522 and NCI-H838 but not NCI-H1246.

[3] = tested on: NCI-H522; test: Soft agar colony formation, NCI-H522; format: cell-based; conditions: 1 μM, 2 weeks
Procedure: as §1

[4] = biological target: NSCLC VIP receptors (EPLC-65H membranes); test: 125I-VIP binding to EPLC-65H membranes; conditions: for IC50 / Kd: EPLC-65H membranes; for IC50: 37° C., 60 min, read-out: IC50, inhibition of specific 125I-VIP binding
Procedure: The binding properties and the adenylate cyclase activity of the VIP receptor in NSCLC cell lines were investigated. NSCLC cells were cultured in RPMI-1640 containing 10% heat inactivated fetal bovine serum (Carney et al. (1985) Cancer Res. 45:2913-2923). When a monolayer formed, the adherent cells were washed with PBS and treated with trypsin/EDTA. The cells were pelleted and resuspended in serum supplemented medium and incubated at 37° C. in 5% CO2 /95% air. Routinely the cells were passed 1/1 weekly and experiments were conducted when the cells were in exponential growth phase.
Cells were rinsed twice in PBS. Membranes were prepared from EPLC-65H by lysing cells in 20 mM Tris.HCl (pH7.5), 1 mg/ml bacitracin, 1 mM PMSF and 0.25M sucrose. The cells were sonicated (15 sec, 120 W) and the membranes centrifuged at 500×g for 5 min in a Beckman J-21 B centrifuge at 4° C. The supernatant was saved and the pellet resuspended, homogenized and centrifuged. The supernatants were combined and centrifuged at 50,000×g for 30 min. The pellet, which contains plasma membranes, was resuspended and 50 μg of membrane protein and 2×10^5 cpm of ^125 I-VIP (2200 Ci/mmol) was added to each assay tube in a total volume of 100 μl; the buffer was 50 mM Tris.maleate, 2 mM MgCl2, 2% BSA, 500 KIU/ml trasylol and 0.2 mg/ml bacitracin. The samples were incubated at 37° C. for 60 min. To terminate the reaction, the incubation solution was centrifuged for 3 min in a microfuge B. The supernatant, which contained free peptide was removed and the top of the pellet rinsed three times with cold assay buffer. The pellet, which contained bound ^125 I-VIP was counted in a gamma counter.
^125 I was purchased from NEN. VIP was iodinated using the chloramine T procedure (Christophe et al. (1976) J. Biol. Chem. 251:4629-4634). ^125 I-VIP was purified using gel filtration techniques. VIP peptides were purchased from Peninsula Laboratories Inc. (San Carlos, Calif.).

[5] = tested on: NCI-H1246; test: Soft agar colony formation, NCI-H1246; format: cell-based; conditions: 1 μM, 2 weeks
Procedure: as §1

[6] = tested on: VIP receptor; test: [125I]VIP binding to rat cortical astrocyte (glial) cell cultures; conditions: 60 pM [125I]VIP, intact cells, 4° C.; for displacement of VIP binding: 10 μM
Procedure: Rat cortical astrocyte cultures were prepared by previously described methods (Evans et al. (1984) J. Neurochem. 43:131; Brenneman et al.(1987) J. Cell Biol. 104:1603). VIP binding studies were conducted on intact cells at 4° C., using PBS containing 0.1% BSA. The cultures (1 mg protein/35 mm culture dish) were incubated with either VIP or the antagonist (10 μM to 1 pM) for 30 min before the addition of 60 pM [^125 I]VIP at Tyr-22 (2000 Ci/mmol; Amersham Corp., Arlington Heights, Ill). Labeled VIP was incubated with the cultures for 1 hr; the medium was then removed, and cells were washed three times by the addition and rapid removal of 1 ml PBS (at 4° C.). The labeled cells were dissolved in 0.02N NaOH and transferred for radioactivity counting.

[7] = tested on: castrated rats; test: Sexual behavior of castrated rats without testosterone supplementation; format: in vivo, rat
Source text: (§2) Male rats were sexually experienced Wistar-derived animals (250-300 g), approximately 3 months old from the Department of Hormone Research, Weizmann Institute of Science. All rats were kept in a 12-hr light, 12-hr dark cycle. Experiments were always conducted within the dark period 2-6 hrs after the onset of darkness. Before testing, each male was put in a separate cage for a period of at least 1 hr. A sexually receptive female (as tested by vaginal smearing) was introduced to each male. Latencies were defined as the intervals between copulatory behaviors (mounts and intromissions). These were recorded over a 15-min period. The latencies to the first copulatory event are reported separately.
After castration, the animals lose sexual activity in a time-dependent manner (Bradshaw et al. (1981) Endocrinology 109:1047; Reach et al. (1946) J. Exp. Zool. 101:91), and eventually all sexual activities are blocked. […] VIP (5 μg/animal) and the antagonists (30 μg/animal) were injected ip in a volume of 0.25 ml. Initial experiments were conducted using iv injections; however, as no significant differences were observed between iv and ip administration, ip injections were chosen in this model. When comparisons were made, the same group of rats was injected with one peptide and, after a period of at least 24 hr, with another peptide. The other parameters used for the experiment are described above.
The second paradigm was the castrated rat model.

[8] = tested on: cAMP levels in 5M2 cells; test: cAMP radioimmunoassay in 5M2 cells; format: cell-based; conditions: 5 min exposure
Procedure: The cAMP assays were performed by radioimmunoassay. 5M2 cells were exposed to stimuli in SIT medium (RPMI-1640 containing 10^-8 M Se2 O3, 1 μg/ml insulin and 3×10^-8 M transferrin) containing […] isobutyl-methyl-xanthine. After 5 min, the reaction was quenched by adding an equal volume of ice cold ethanol. The samples were vortexed and an aliquot of supernatant removed and added to 100 μl of 50 mM sodium acetate (pH 6.2). The sample (25 μl) was acetylated at 4° C. by adding 10 μl of triethylamine followed by 5 μl of acetic anhydride. Then 200 μl of goat anti-cyclic AMP antibody was added followed by 8,000 cpm of ^125 I-2-succinyl (tyrosine methyl ester)-cyclic AMP (NEN). After incubation for 16 hr at 4° C., 1 ml of charcoal suspension (2 mg/ml Norit-A charcoal in 100 mM phosphate buffer, pH 6.3, which contains 0.25% BSA) was added, the tubes vortexed and centrifuged at 1,500×g for 10 min. An aliquot (1 ml) of supernatant, which contains radiolabeled antigen-antibody complex, was counted in a gamma counter.

[9] = tested on: pituitary-transplanted male rats; test: Sexual behavior of pituitary-grafted gonadally intact male rats; format: in vivo, rat; conditions: 5 ug iv
Source text: as §2
This procedure results in hyperprolactinemia and a decrease in sexual potency in male rats. Pituitary-transplanted male rats (8 weeks after transplantation) were injected with 5 μg VIP, iv. As a control, saline iv was injected at identical volumes. The peptide was injected into the tail vein, restraining the animal by hand (two people were involved in the actual injection). The animals were subjected to the behavioral tests immediately after the injection. At least 24 hr elapsed between two consecutive tests per animal (i.e. between saline injection and VIP injection). The doses of VIP were deduced from those used to induce penile erection in men (Ottesen et al. (1984) Br. Med. J. 288:9). The statistical analysis involved a single test measurement per animal.

[10] = tested on: NSCLC VIP receptors (EPLC-65H membranes); test: 125I-VIP binding to EPLC-65H membranes
[11] = coinjected ip with VIP at 3-fold molar excess

Lys-Pro-Arg-Arg-Pro-Tyr-Thr-Asp-Asn-Tyr-Thr-Arg-Leu-Arg-Lys-Gln-Met-Ala-Val-Lys-Lys-Tyr-Leu-Asn-Ser-Ile-Leu-Asn-NH2 (KPRRPYTDNYTRLRKQMAVKKYLNSILN-NH2) [VIP-neurotensin hybrid antagonist]
effect on VIP-stimulated sexual activity [1, 11]: complete blockade of VIP activity | sexual activity values lower than the control values [1, 11]: 2 fold | latency to the first copulatory event ([1]; coinjected ip with VIP at 3-fold molar excess, 40±9 with VIP alone): 92 ± 20 s | rate of copulatory events ([1]; injected by itself, 10 animals, from 1.66±0.12): 1.16±0.11 | intromission interval ([1]; injected by itself, 10 animals, from 36.9±2.4): 53.4 ± 8.6 s | colony fraction (colonies with antagonist relative to basal colonies) [2]: 0.76±0.04 | colony fraction (colonies with antagonist relative to basal colonies) [3]: 0.45±0.16 | IC50 [4]: 10 nM | colony fraction (colonies with antagonist relative to basal colonies) [5]: 1.47±0.30 | IC50 ([6]; read-out: IC50, first binding site of biphasic displacement curve): 0.05 nM | IC50 ([6]; read-out: IC50, second binding site of biphasic displacement curve): 100 nM | displacement of VIP binding [6]: 85-90%

VIP: a 28 amino acid peptide with an amidated C-terminal; widely distributed peptide hormone
drop in the intervals between copulatory events (including latency to first intromission) ([7]; 14 days after castration, 5 ug ip): 2- to 4 fold | intromission latency ([7]; 14 days after castration, 5 ug ip, six animals, 90±16 before): 35 ± 2.4 s | animals that ejaculated ([7]; model without testosterone supplementation, after VIP treatment): 1 of 6 | ED50, increase of cAMP levels [8]: 10 nM | decrease in intervals (intromission latencies) between copulatory events ([1]; 5 ug ip): 2 fold | latency to the first intromission ([1]; 5 ug ip, nine animals, 74±10 without VIP): 40 ± 9 s | increase in the rate of intromissions before ejaculation or end of test period ([1]; 5 ug ip, vs saline injection): ~2 fold | animals that ejaculated ([1]; after VIP treatment, 15 animals): 80-100% | mean latency to the first mount and intromission [9]: 23 ± 4 s | mean interval between copulatory events ([9]; 15-min test, vs saline): significant reduction | rate of copulation ([9]; 15-min test, vs saline): significant increase | decrease in the latency to the first intromission ([9]; vs control): 2- to 3 fold | rats that ejaculated ([9]; 10-20% before treatment): all of the rats ejaculated | IC50 [4]: 10 nM | displacement of VIP binding [6]: 75%

^125 I-VIP: VIP iodinated using the chloramine T procedure; radiolabeled VIP
Kd ([4]; read-out: Kd, high affinity site (Scatchard)): 0.7 nM | Kd ([4]; read-out: Kd, low affinity site (Scatchard)): 20 nM | time at which half of the specific binding was reversed (dissociation) ([4]; after addition of 1 μM unlabeled VIP): 40 min | time to half maximal specific binding (association) [10]: 20 min | time to maximal specific binding (association) [10]: 60 min

LMYPTYLK [octamere]
effect on VIP-stimulated sexual behavior ([1]; coinjected with VIP (5 ug), 20-fold molar excess, 30 ug/animal ip): specifically inhibited VIP effects on sexual behavior

helodermin
IC50 [4]: 100 nM

secretin
IC50 [4]: 300 nM

peptide histidine isoleucine amide (HADGVFTSDYSRLLGQISAKKYLESLI-NH2; UniProt P01283 81-107, looked up) [PHI, cosynthesized with VIP on the same protein precursor]
average latency to intromissions and rate of copulatory events, difference from VIP by itself ([1]; PHI by itself or VIP plus PHI equimolar): 2 fold | animals that ejaculated ([1]; in the presence of PHI, 5 ug iv): one of nine | effect on rat sexual behavior ([1]; peptide by itself (5 ug iv) or with VIP): inhibited rat sexual behavior and VIP-induced rat sexual behavior | IC50 [4]: 80 nM

GHRH: unlabeled peptide tested for specificity of 125I-VIP binding
IC50 [4]: 20 nM
